Here are results for one compound from US3957788A (priority 1974, dated 1976).

SMILES strings stand for the structures. Read-outs that look alike come from different tables or passages of the source.

In one experiment the test system is male mice of ddN strain. As to the kind of experiment: animal or person. It counts as in vivo. Conditions: Mus musculus, read-out: D'Amour-Smith method, analgesic ED50.
The subject of experiment [1] is female mice of ddN strain. Conditions: mouse, in vivo.
Experiment [2] relates to male rats of Wistar strain. Briefly: animal or person. The format is in vivo. The note with it: Rattus norvegicus, po, read-out: Haffner method, analgesic ED50.

For orientation: ED50 means the midpoint of the dose-response relation. Take `Cc1c(N(C)C)c(=O)n(-c2ccccc2)n1C` [compound 5, Aminopyrine]: the ED50 in the experiment on male mice of ddN strain (po) is not below 640 mg/kg; with male mice of ddN strain (sc), 233 mg/kg; in experiment [2] it was more than 2560 mg/kg. Moreover, the “Phenylquinone method (analgesic activity)” value in experiment [1] is reported as 53.3.
